Laboratory results taken from patent US12343347B2 (Biohaven Pharmaceutical Holding Company Ltd., priority 2012, dated 2025).

Key:
[1] = Metabolic stability in pooled human liver microsomes; type: in vitro ADME; conditions: human liver microsomes 0.5 mg/mL, 1 uM, NADPH, 37° C.
Experimental: (§1) Metabolic Stability: In vitro metabolic stability was determined in pooled mouse or human liver microsomes (BD Gentest) at a protein concentration of 0.5 mg/mL in reaction buffer (100 mM KH2PO4, pH 7.4 and 12 mM MgCl2). Each drug candidate was added to a final concentration of 1 uM. This mixture was pre-warmed to 37° C. for 10 minutes prior to starting the reaction with the addition of β-Nicotinamide adenine dinucleotide 2′-phosphate reduced (NADPH) to a final concentration of 1 mM. A parallel incubation lacking NADPH served as the control. After incubation for 30 min at 37° C., the reactions were quenched by the addition of acetonitrile containing 0.1% formic acid and internal standard, vortex mixed for 2 minutes and centrifuged at 4000 rpm for 10 minutes to pellet the precipitated protein. The resulting supernatant containing the drug candidate and its potential metabolites was diluted 5-fold with water containing 0.1% formic acid and submitted to LC-MS/MS analysis. […]
(§2) LC-MS/MS Analysis: An aliquot from each incubation was analyzed by LC-MS/MS with SRM detection in the positive ionization mode using an ABSciex API 5500 QTrap Mass Spectrometer interfaced via the ABSciex Turbo V IonSpray source (ESI) to an Eksigent ExpressHT LC system. […] A fast gradient, from 15 to 85% organic in 2.5 minutes, with run time of 5.0 minutes, and flow rate of 50 uL/min was utilized. Peak areas were integrated using MultiQuant v2.0 software from ABSciex.

[2] = Stability in Simulated Gastric Fluid (SGF); type: in vitro ADME; conditions: SGF:acetonitrile 9:1, 0.01 mg/mL, 37° C.
Experimental: (§3) Stability in Simulated Gastric Fluid (SGF) and Simulated Intestinal Fluid (SIF). Procedure from Baudy et. al. (J. Med. Chem. 2009, 52, 771-778) used. The physiological stability of pro-drugs was determined by examining the stability of the compound in SGF, and SIF at 37° C. The compounds were prepared in a 9:1 mixture of the appropriate test component (SGF, SIF) and acetonitrile to a final concentration of 0.01 mg/mL. The samples were thoroughly mixed and maintained at 37° C. Each sample was injected consecutively onto an Agilent 1100 system (Luna C18, 3 μm, 50 mm×3 mm; 1 mL/min; mobile phase of 0.1% trifluoroacetic acid in water/0.1% trifluoroacetic acid in acetonitrile) after a 3 h period. The percent remaining of pro-drug was calculated by comparing the area of pro-drug compound versus riluzole generated. The identities of the parent compounds and conversion products were confirmed by LC/MS.

[3] = Stability in Simulated Intestinal Fluid (SIF); type: in vitro ADME; conditions: SIF:acetonitrile 9:1, 0.01 mg/mL, 37° C.
Experimental: as §3

[4] = Plasma stability in fresh human plasma; type: in vitro ADME; conditions: 1 uM, 37° C.
Experimental: (§4) Plasma Stability: Assessment of plasma stability was carried out by individual incubations of drug candidates in fresh mouse or human control plasma at a concentration of 1 uM for 1 hour at 37° C. After which, the samples were de-proteinized by addition of 2 volumes of acetonitrile containing 0.1% formic acid and internal standard, vortex mixed for 2 minutes and centrifuged at 4000 rpm for 10 minutes to pellet precipitated protein. The resulting supernatant containing the drug candidates was diluted 5-fold with water containing 0.1% formic acid and submitted to LC-MS/MS analysis. All determinations were done in triplicate. […]
as §2

[5] = Plasma stability in fresh mouse plasma; type: in vitro ADME; conditions: 1 uM, 37° C.
Experimental: as §4, §2

[6] = Metabolic stability in pooled mouse liver microsomes; type: in vitro ADME; conditions: mouse liver microsomes 0.5 mg/mL, 1 uM, NADPH, 37° C.
Experimental: as §1, §2

[7] = test system: amyotrophic lateral sclerosis (ALS) patients; conditions: after 1.5 years of treatment; cited from earlier work

Row | Compound | Metabolic Stability human (30 minutes), percent of pro-drug metabolized to riluzole [1] [%] | SGF (3 hours), percent of pro-drug metabolized to riluzole [2] [%] | SIF (3 hours), percent of pro-drug metabolized to riluzole [3] [%] | Plasma Stability Human (1 hour), percent of pro-drug metabolized to riluzole [4] [%] | Plasma Stability mouse (1 hour), percent of pro-drug metabolized to riluzole [5] [%] | Metabolic Stability mouse (30 minutes), percent of pro-drug metabolized to riluzole [6] [%] | increase of lifespan [7]
1 | CN(C)CCCOC(=O)Nc1nc2ccc(OC(F)(F)F)cc2s1 [Cpd 19, (6-Trifluoromethoxy-benzothiazol-2-yl)-carbamic acid 3-dimethylamino-propyl ester] | 0 | 0 | 0 | 0 | 0 | 71 | –
2 | CC(C)[C@H](N)C(=O)Nc1nc2ccc(OC(F)(F)F)cc2s1 [Cpd 11, (S)-2-Amino-3-methyl-N-(6-trifluoromethoxy-benzothiazol-2-yl)-butyramide] | 6 | 0 | 40 | 11 | 45 | 40 | –
3 | COC(=O)Nc1nc2ccc(OC(F)(F)F)cc2s1 [Cpd 12, (6-Trifluoromethoxy-benzothiazol-2-yl)-carbamic acid methyl ester] | 0 | 0 | 0 | 15 | 0 | 10 | –
4 | COC(=O)CCC(=O)Nc1nc2ccc(OC(F)(F)F)cc2s1 [Cpd 21, N-(6-Trifluoromethoxy-benzothiazol-2-yl)-succinamic acid methyl ester] | 34 | 3 | 0 | 25 | 99 | 77 | –
5 | CC(C)COC(=O)Nc1nc2ccc(OC(F)(F)F)cc2s1 [Cpd 16, (6-Trifluoromethoxy-benzothiazol-2-yl)-carbamic acid isobutyl ester] | 14 | 5 | 0 | 0 | 0 | 23 | –
6 | N[C@@H](COCc1ccccc1)C(=O)Nc1nc2ccc(OC(F)(F)F)cc2s1 [Cpd 10, (S)-2-Amino-3-benzyloxy-N-(6-trifluoromethoxy-benzothiazol-2-yl)-propionamide] | 15 | 0 | 0 | 9 | 52 | 0 | –
7 | NCCCCC(=O)Nc1nc2ccc(OC(F)(F)F)cc2s1 [Cpd 26, 5-Amino-pentanoic acid (6-trifluoromethoxy-benzothiazol-2-yl)-amide] | 19 | 0 | 0 | 5 | 0 | 66 | –
8 | O=C(CCC(=O)Nc1nc2ccc(OC(F)(F)F)cc2s1)NCc1cccnc1 [Cpd 23, N-Pyridin-3-ylmethyl-N′-(6-trifluoromethoxy-benzothiazol-2-yl)-succinamide] | 4 | 0 | 10 | 0 | 26 | 0 | –
9 | Nc1nc2ccc(OC(F)(F)F)cc2s1 [riluzole, 6-(trifluoromethoxy)-1,3-benzothiazol-2-amine] | – | – | – | – | – | – | 2-3 months
10 | Nc1ccc(C(=O)Nc2nc3ccc(OC(F)(F)F)cc3s2)cc1 [Cpd 28, 4-Amino-N-(6-trifluoromethoxy-benzothiazol-2-yl)-benzamide] | 80 | 0 | 0 | 0 | 0 | 24 | –
